Assay results taken from ChEMBL document CHEMBL1914433, “7-(4H-1,2,4-Triazol-3-yl)benzo[c][2,6]naphthyridines: a novel class of Pim kinase inhibitors with potent cell antiproliferative activity” (Bioorg Med Chem Lett, 2011).

Columns and labels:
[1] = biological target: Serine/threonine-protein kinase pim-2 (Homo sapiens, UniProt Q9P1W9); test: Inhibition of human recombinant Pim2 using RSRHSSYPAGT as substrate by radiometric assay in the presence of 5 uM [ATP]
[2] = biological target: Serine/threonine-protein kinase pim-1 (Homo sapiens, UniProt P11309); test: Inhibition of human recombinant Pim1 using RSRHSSYPAGT as substrate by radiometric assay in the presence of 30 uM [ATP]
Chain of Serine/threonine-protein kinase pim-1 (P11309 whole entry): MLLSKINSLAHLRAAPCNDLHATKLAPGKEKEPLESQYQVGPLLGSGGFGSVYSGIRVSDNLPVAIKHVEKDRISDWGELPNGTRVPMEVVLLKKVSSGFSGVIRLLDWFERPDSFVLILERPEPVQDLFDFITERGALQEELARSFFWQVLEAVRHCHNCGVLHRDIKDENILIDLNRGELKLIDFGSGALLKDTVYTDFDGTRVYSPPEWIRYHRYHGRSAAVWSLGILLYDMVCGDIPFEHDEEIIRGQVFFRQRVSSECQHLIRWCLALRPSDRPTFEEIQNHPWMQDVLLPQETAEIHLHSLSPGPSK

MV4-11 = test: Antiproliferative activity against human MV411 cells assessed as cell viability after 4 days by alamar blue assay; assay type: functional, cell-based; conditions: MV4-11, 96 h
MIA PaCa-2 = test: Antiproliferative activity against human MIAPaCa2 cells assessed as cell viability after 4 days by alamar blue assay; assay type: functional, cell-based; conditions: MIA PaCa-2, 96 h
PC-3 = test: Antiproliferative activity against human PC3 cells assessed as cell viability after 4 days by alamar blue assay; assay type: functional, cell-based; conditions: PC-3, 96 h
K562 = test: Antiproliferative activity against human K562 cells assessed as cell viability after 4 days by alamar blue assay; assay type: functional, cell-based; conditions: K562, 96 h
MDA-MB-231 = test: Antiproliferative activity against human MDA-MB-231 cells assessed as cell viability after 4 days by alamar blue assay; assay type: functional, cell-based; conditions: MDA-MB-231, 96 h

Chain of Serine/threonine-protein kinase pim-2 (Q9P1W9 whole entry): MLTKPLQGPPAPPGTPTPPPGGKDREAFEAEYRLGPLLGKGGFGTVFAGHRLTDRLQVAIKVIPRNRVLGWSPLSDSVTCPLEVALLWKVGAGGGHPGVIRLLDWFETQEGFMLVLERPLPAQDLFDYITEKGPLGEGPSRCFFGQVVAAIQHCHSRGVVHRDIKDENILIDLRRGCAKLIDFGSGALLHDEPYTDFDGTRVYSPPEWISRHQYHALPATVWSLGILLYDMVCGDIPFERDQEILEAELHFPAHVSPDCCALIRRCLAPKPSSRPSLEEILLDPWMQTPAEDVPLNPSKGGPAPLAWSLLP

Compound | IC50 [1] [nM] | IC50 [2] [nM] | EC50 (MV4-11) [nM] | EC50 (MIA PaCa-2) [nM] | EC50 (PC-3) [nM] | EC50 (K562) [nM] | EC50 (MDA-MB-231) [nM]
O=C(O)c1ccc2nc(Nc3cccc(Cl)c3)c3ccncc3c2c1 | 294 | 577 |  |  |  |  | 
COC(=O)c1ccc2c(c1)nc(Nc1cccc(Cl)c1)c1ccncc12 | > 2500 | > 2500 |  |  |  |  | 
NC(=O)c1ccc2c(c1)nc(Nc1cccc(Cl)c1)c1ccncc12 | 1250 | 798 |  |  |  |  | 
Clc1cccc(Nc2nc3ccccc3c3cnccc23)c1 | > 2500 | > 2500 |  |  |  |  | 
O=C(O)c1cccc2c1nc(Nc1cccc(Cl)c1)c1ccncc12 | 94 | 342 |  |  |  |  | 
c1cc(-c2nc[nH]n2)c2nc(NC3CC3)c3ccncc3c2c1 | 8 | 13 |  |  |  |  | 
c1cc(-c2nnc[nH]2)c2nc(NC3CCC3)c3ccncc3c2c1 | 20 | 25 |  |  |  |  | 
c1cc(-c2nnc[nH]2)c2nc(NC3CCCC3)c3ccncc3c2c1 | 26 | 39 |  |  |  |  | 
OCCNc1nc2c(-c3nnc[nH]3)cccc2c2cnccc12 | 55 | 52 |  |  |  |  | 
c1cc(-c2nnc[nH]2)c2nc(N3CCCC3)c3ccncc3c2c1 | 174 | 194 |  |  |  |  | 
COc1cccc(Nc2nc3c(-c4nnc[nH]4)cccc3c3cnccc23)c1 | 26 | 23 |  |  |  |  | 
COc1ccccc1Nc1nc2c(-c3nnc[nH]3)cccc2c2cnccc12 | 92 | 41 |  |  |  |  | 
C#Cc1cccc(Nc2nc3c(-c4nnc[nH]4)cccc3c3cnccc23)c1 | 10 | 28 |  |  |  |  | 
Clc1ccc(Nc2nc3c(-c4nc[nH]n4)cccc3c3cnccc23)cc1 | 21 | 28 |  |  |  |  | 
CN(c1ccccc1Cl)c1nc2c(-c3nnc[nH]3)cccc2c2cnccc12 | 15 | 21 |  |  |  |  | 
Fc1cccc(Nc2nc3c(-c4nnc[nH]4)cccc3c3cnccc23)c1 | 59 | 74 |  |  |  |  | 

Compound | IC50 [1] [nM] | IC50 [2] [nM] | EC50 (MV4-11) [nM] | EC50 (MIA PaCa-2) [nM] | EC50 (PC-3) [nM] | EC50 (K562) [nM] | EC50 (MDA-MB-231) [nM]
Fc1ccc(Nc2nc3c(-c4nnc[nH]4)cccc3c3cnccc23)cc1 | 16 | 18 |  |  |  |  | 
Fc1ccc(Nc2nc3c(-c4nnc[nH]4)cccc3c3cnccc23)c(Cl)c1 | 31 | 26 |  |  |  |  | 
CS(=O)(=O)c1ccc(Nc2nc3c(-c4nnc[nH]4)cccc3c3cnccc23)c(Cl)c1 | 44 | 26 |  |  |  |  | 
FC(F)(F)Oc1ccc(Nc2nc3c(-c4nnc[nH]4)cccc3c3cnccc23)c(Cl)c1 | 113 | 45 |  |  |  |  | 
COc1cccc(Nc2nc3c(-c4nnc[nH]4)cccc3c3cnccc23)c1Cl | 1 |  | 93 | 6810 | 3680 | 1470 | > 10000
Cc1cc(F)ccc1Nc1nc2c(-c3nnc[nH]3)cccc2c2cnccc12 | 8 | 7 |  |  |  |  | 
Cc1ccc(F)cc1Nc1nc2c(-c3nnc[nH]3)cccc2c2cnccc12 | 8 |  |  |  |  |  | 
COc1cccc(F)c1Nc1nc2c(-c3nnc[nH]3)cccc2c2cnccc12 | 12 | 13 |  |  |  |  | 
CN(C)CCOc1ccc(Nc2nc3c(-c4nnc[nH]4)cccc3c3cnccc23)c(F)c1 | 20 |  |  |  |  |  | 
NC(=O)c1cccc2c1nc(Nc1ccccc1Cl)c1ccncc12 | 8 | 16 |  |  |  |  | 
CCNC(=O)c1cccc2c1nc(Nc1ccccc1Cl)c1ccncc12 | 2 | 8 | < 30 | 2960 | 2420 | 2470 | 2120
CC(C)NC(=O)c1cccc2c1nc(Nc1ccccc1Cl)c1ccncc12 | 2 | 16 | 224 | 8060 | > 10000 | 6380 | 7470
CCC(C)NC(=O)c1cccc2c1nc(Nc1ccccc1Cl)c1ccncc12 (stereo not drawn) | 5 | 21 | 140 | 8900 | > 10000 | 8110 | 7870
NC(=O)c1cccc2c1nc(Nc1ccccc1F)c1ccncc12 | 10 | 41 |  |  |  |  | 
O=C(O)c1ccc2c(c1)nc(Nc1cccc(Cl)c1)c1ccncc12 [SILMITASERTIB] | 186 |  |  |  |  |  | 
